Test results as given in ChEMBL document CHEMBL5325488, “Discovery of SMD-3040 as a Potent and Selective SMARCA2 PROTAC Degrader with Strong in vivo Antitumor Activity” (J Med Chem, 2023).
Blank lines part the entries; values can stand above or below the compound they belong to.

Columns and labels:
[1] = system: A549; assay: Antiproliferative activity against SMARCA4-deficient human A549 cells assessed as cell growth inhibition measured after 7 days by WST-8 assay; format: functional; details: A549, 168 h, time 7 day
[2] = molecular target: T1, von Hippel-Lindau disease tumor suppressor/SWI/SNF-related matrix-associated actin-dependent regulator of chromatin subfamily A member 2 (Homo sapiens, UniProt P51531+P40337); assay: PROTAC activity at VHL/C-terminal HiBiT fused SMARCA2 in human HeLa cells assessed as induction of SMARCA2 degradation incubated for 24 hrs by Nano-Glo HiBiT analysis; format: cell-based
Target sequence in this assay (P51531 whole entry, the tested form may be a part): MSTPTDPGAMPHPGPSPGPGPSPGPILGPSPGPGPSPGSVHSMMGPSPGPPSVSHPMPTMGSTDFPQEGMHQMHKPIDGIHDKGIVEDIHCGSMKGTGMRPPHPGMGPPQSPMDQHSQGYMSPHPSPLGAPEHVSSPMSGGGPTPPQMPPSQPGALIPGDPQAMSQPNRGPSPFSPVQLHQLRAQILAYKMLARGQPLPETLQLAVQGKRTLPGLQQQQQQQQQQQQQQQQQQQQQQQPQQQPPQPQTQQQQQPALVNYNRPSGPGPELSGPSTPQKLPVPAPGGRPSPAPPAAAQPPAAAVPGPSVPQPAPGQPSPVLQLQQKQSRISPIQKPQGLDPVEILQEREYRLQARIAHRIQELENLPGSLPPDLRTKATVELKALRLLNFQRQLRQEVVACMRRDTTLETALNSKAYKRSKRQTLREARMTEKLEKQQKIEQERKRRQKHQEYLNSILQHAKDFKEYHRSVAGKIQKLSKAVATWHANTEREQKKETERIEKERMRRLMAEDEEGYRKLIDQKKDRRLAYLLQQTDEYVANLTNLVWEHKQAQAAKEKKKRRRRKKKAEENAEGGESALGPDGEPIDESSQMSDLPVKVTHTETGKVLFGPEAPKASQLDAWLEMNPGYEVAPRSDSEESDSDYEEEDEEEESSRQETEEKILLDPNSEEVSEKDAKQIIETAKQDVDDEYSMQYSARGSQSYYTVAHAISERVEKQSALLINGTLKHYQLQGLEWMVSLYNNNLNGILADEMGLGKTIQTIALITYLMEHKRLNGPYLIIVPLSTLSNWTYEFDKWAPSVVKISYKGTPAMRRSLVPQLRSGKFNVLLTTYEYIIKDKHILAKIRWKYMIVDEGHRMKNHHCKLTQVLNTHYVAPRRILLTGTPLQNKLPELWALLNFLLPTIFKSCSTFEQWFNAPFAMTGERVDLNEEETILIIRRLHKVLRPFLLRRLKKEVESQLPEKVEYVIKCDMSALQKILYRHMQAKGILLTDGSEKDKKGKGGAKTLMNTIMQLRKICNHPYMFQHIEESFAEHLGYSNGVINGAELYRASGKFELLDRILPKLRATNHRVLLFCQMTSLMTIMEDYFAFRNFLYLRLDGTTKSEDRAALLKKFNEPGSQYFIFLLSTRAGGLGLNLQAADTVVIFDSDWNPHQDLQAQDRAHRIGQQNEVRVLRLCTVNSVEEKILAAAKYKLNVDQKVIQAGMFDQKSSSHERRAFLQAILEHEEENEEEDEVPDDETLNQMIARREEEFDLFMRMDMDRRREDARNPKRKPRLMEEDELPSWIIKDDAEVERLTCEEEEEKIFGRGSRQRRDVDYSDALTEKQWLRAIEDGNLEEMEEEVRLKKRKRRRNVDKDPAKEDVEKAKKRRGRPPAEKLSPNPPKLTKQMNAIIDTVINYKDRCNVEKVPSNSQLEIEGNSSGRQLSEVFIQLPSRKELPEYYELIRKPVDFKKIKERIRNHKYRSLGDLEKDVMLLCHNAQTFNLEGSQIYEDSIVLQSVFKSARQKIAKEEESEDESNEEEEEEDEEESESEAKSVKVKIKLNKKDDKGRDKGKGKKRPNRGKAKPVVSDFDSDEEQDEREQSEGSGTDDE
Target sequence in this assay (P40337 whole entry, the tested form may be a part): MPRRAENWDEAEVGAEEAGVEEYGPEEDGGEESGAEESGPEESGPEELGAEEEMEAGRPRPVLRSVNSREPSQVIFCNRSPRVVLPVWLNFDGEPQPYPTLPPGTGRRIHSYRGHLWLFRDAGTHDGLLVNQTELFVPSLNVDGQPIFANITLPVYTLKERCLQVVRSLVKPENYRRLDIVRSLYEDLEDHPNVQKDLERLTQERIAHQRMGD

[3] = molecular target: T2, von Hippel-Lindau disease tumor suppressor/SWI/SNF-related matrix-associated actin-dependent regulator of chromatin subfamily A member 4 (Homo sapiens, UniProt P51532+P40337); assay: PROTAC activity at VHL/C-terminal HiBiT fused SMARCA4 in human HeLa cells assessed as induction of SMARCA4 degradation by measuring maximal efficacy incubated for 24 hrs by Nano-Glo HiBiT analysis relative to control; format: cell-based
Target sequence in this assay (P40337 whole entry, looked up, the tested form may be a part): as the sequence (P40337 whole entry, the tested form may be a part) above
Target sequence in this assay (P51532 whole entry, looked up, the tested form may be a part): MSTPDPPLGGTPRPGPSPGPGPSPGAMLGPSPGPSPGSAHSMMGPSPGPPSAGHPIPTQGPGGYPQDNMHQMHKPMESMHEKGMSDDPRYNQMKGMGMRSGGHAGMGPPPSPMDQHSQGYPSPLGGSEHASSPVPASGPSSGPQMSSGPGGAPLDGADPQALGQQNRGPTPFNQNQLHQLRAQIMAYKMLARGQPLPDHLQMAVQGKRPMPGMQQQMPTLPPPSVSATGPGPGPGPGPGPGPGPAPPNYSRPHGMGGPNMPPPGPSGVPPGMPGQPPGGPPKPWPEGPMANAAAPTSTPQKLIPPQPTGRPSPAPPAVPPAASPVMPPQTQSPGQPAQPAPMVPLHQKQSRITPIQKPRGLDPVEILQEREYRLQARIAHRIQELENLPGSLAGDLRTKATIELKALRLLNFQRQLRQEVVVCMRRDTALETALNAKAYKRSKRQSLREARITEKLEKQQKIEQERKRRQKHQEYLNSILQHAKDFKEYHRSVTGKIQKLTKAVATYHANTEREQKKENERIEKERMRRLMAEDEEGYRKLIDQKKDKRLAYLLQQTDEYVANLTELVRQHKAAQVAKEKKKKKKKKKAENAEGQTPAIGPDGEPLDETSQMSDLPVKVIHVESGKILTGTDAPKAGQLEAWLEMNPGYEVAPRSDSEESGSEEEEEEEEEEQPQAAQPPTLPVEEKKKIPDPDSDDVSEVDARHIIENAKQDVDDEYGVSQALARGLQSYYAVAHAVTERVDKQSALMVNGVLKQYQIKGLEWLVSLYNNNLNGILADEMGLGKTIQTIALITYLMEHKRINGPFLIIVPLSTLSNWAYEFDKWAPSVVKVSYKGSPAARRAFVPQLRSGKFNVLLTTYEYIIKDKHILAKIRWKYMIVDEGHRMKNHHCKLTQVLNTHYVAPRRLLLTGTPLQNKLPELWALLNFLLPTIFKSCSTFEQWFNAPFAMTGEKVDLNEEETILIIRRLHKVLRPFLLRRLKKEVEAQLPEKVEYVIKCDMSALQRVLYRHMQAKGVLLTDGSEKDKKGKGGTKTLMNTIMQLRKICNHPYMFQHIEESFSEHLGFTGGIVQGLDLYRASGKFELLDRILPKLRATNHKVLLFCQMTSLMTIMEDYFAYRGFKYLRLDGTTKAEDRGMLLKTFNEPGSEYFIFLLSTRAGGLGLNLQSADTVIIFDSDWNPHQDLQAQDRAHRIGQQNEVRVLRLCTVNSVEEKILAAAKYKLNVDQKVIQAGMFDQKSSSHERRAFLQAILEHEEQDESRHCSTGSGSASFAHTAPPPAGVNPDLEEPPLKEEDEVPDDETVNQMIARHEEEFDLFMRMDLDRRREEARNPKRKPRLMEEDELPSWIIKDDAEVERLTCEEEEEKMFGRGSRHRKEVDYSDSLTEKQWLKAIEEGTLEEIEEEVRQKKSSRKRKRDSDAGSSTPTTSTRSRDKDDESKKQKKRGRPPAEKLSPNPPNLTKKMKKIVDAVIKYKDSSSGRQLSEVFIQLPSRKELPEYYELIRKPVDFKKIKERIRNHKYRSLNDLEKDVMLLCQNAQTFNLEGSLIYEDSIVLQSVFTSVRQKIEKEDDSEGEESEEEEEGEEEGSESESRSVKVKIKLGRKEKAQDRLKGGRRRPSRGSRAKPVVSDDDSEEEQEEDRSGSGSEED

[4] = system: NCI-H838; assay: Antiproliferative activity against SMARCA4-deficient human NCI-H838 cells assessed as cell growth inhibition measured after 7 days by WST-8 assay; format: functional; details: NCI-H838, 168 h, time 7 day
[5] = system: SK-MEL-5; assay: Antiproliferative activity against SMARCA4-deficient human SK-MEL-5 cells assessed as cell growth inhibition by measuring maximal efficacy measured after 7 days by WST-8 assay relative to control; format: functional; details: time 7 day
[6] = system: NCI-H1299; assay: Antiproliferative activity against SMARCA4-deficient human NCI-H1299 cells assessed as cell growth inhibition measured after 7 days by WST-8 assay; format: functional; details: NCI-H1299, 168 h, time 7 day
[7] = molecular target: T2, von Hippel-Lindau disease tumor suppressor/SWI/SNF-related matrix-associated actin-dependent regulator of chromatin subfamily A member 4; assay: PROTAC activity at VHL/C-terminal HiBiT fused SMARCA4 in human HeLa cells assessed as induction of SMARCA4 degradation incubated for 24 hrs by Nano-Glo HiBiT analysis; format: cell-based
Target sequence in this assay (P51532 whole entry, the tested form may be a part): as the sequence (P51532 whole entry, looked up, the tested form may be a part) above
Target sequence in this assay (P40337 whole entry, the tested form may be a part): as the sequence (P40337 whole entry, the tested form may be a part) above

[8] = system: NCI-H1693; assay: Antiproliferative activity against SMARCA4-deficient human NCI-H1693 cells assessed as cell growth inhibition by measuring maximal efficacy measured after 7 days by WST-8 assay relative to control; format: functional; details: time 7 day
[9] = system: NCI-H1793; assay: Antiproliferative activity against SMARCA4-deficient human NCI-H1793 cells assessed as cell growth inhibition measured after 7 days by WST-8 assay; format: functional; details: NCI-H1793, 168 h, time 7 day
[10] = system: SK-MEL-28; assay: Antiproliferative activity against human SK-MEL-28 cells expressing wild-type SMARCA2 assessed as cell growth inhibition measured after 7 days by WST-8 assay; format: functional; details: SK-MEL-28, 168 h, time 7 day
[11] = system: NCI-H1944; assay: Antiproliferative activity against SMARCA4-deficient human NCI-H1944 cells assessed as cell growth inhibition by measuring maximal efficacy measured after 7 days by WST-8 assay relative to control; format: functional; details: time 7 day
[12] = Antiproliferative activity against SMARCA4-deficient human NCI-H1568 cells assessed as cell growth inhibition measured after 7 days by WST-8 assay; format: functional; details: NCI-H1568, 168 h, time 7 day
[13] = system: SK-MEL-28; assay: Antiproliferative activity against human SK-MEL-28 cells expressing wild-type SMARCA2 assessed as cell growth inhibition by measuring maximal efficacy measured after 7 days by WST-8 assay relative to control; format: functional; details: time 7 day
[14] = system: NCI-H1975; assay: Antiproliferative activity against human NCI-H1975 cells expressing wild-type SMARCA2 assessed as cell growth inhibition measured after 7 days by WST-8 assay; format: functional; details: NCI-H1975, 168 h, time 7 day
[15] = system: NCI-H1793; assay: Antiproliferative activity against SMARCA4-deficient human NCI-H1793 cells assessed as cell growth inhibition by measuring maximal efficacy measured after 7 days by WST-8 assay relative to control; format: functional; details: time 7 day
[16] = system: NCI-H1975; assay: Antiproliferative activity against human NCI-H1975 cells expressing wild-type SMARCA2 assessed as cell growth inhibition by measuring maximal efficacy measured after 7 days by WST-8 assay relative to control; format: functional; details: time 7 day
[17] = system: A549; assay: Antiproliferative activity against SMARCA4-deficient human A549 cells assessed as cell growth inhibition by measuring maximal efficacy measured after 7 days by WST-8 assay relative to control; format: functional; details: time 7 day
[18] = system: NCI-H1792; assay: Antiproliferative activity against human NCI-H1792 cells expressing wild-type SMARCA2 assessed as cell growth inhibition by measuring maximal efficacy measured after 7 days by WST-8 assay relative to control; format: functional; details: time 7 day
[19] = system: NCI-H1299; assay: Antiproliferative activity against SMARCA4-deficient human NCI-H1299 cells assessed as cell growth inhibition by measuring maximal efficacy measured after 7 days by WST-8 assay relative to control; format: functional; details: time 7 day
[20] = molecular target: T1, von Hippel-Lindau disease tumor suppressor/SWI/SNF-related matrix-associated actin-dependent regulator of chromatin subfamily A member 2; assay: PROTAC activity at VHL/C-terminal HiBiT fused SMARCA2 in human HeLa cells assessed as induction of SMARCA2 degradation by measuring maximal efficacy incubated for 24 hrs by Nano-Glo HiBiT analysis relative to control; format: cell-based
Target sequence in this assay (P40337 whole entry, looked up, the tested form may be a part): as the sequence (P40337 whole entry, the tested form may be a part) above
Target sequence in this assay (P51531 whole entry, looked up, the tested form may be a part): as the sequence (P51531 whole entry, the tested form may be a part) above

[21] = system: SK-MEL-5; assay: Antiproliferative activity against SMARCA4-deficient human SK-MEL-5 cells assessed as cell growth inhibition measured after 7 days by WST-8 assay; format: functional; details: SK-MEL-5, 168 h, time 7 day
[22] = system: NCI-H647; assay: Antiproliferative activity against human NCI-H647 cells expressing wild-type SMARCA2 assessed as cell growth inhibition by measuring maximal efficacy measured after 7 days by WST-8 assay relative to control; format: functional; details: time 7 day
[23] = Antiproliferative activity against SMARCA4-deficient human NCI-H1568 cells assessed as cell growth inhibition by measuring maximal efficacy measured after 7 days by WST-8 assay relative to control; format: functional; details: time 7 day
[24] = system: NCI-H1693; assay: Antiproliferative activity against SMARCA4-deficient human NCI-H1693 cells assessed as cell growth inhibition measured after 7 days by WST-8 assay; format: functional; details: NCI-H1693, 168 h, time 7 day
[25] = system: NCI-H1792; assay: Antiproliferative activity against human NCI-H1792 cells expressing wild-type SMARCA2 assessed as cell growth inhibition measured after 7 days by WST-8 assay; format: functional; details: NCI-H1792, 168 h, time 7 day
[26] = system: NCI-H1944; assay: Antiproliferative activity against SMARCA4-deficient human NCI-H1944 cells assessed as cell growth inhibition measured after 7 days by WST-8 assay; format: functional; details: NCI-H1944, 168 h, time 7 day
[27] = system: NCI-H647; assay: Antiproliferative activity against human NCI-H647 cells expressing wild-type SMARCA2 assessed as cell growth inhibition measured after 7 days by WST-8 assay; format: functional; details: NCI-H647, 168 h, time 7 day
[28] = system: NCI-H838; assay: Antiproliferative activity against SMARCA4-deficient human NCI-H838 cells assessed as cell growth inhibition by measuring maximal efficacy measured after 7 days by WST-8 assay relative to control; format: functional; details: time 7 day
[29] = molecular target: SWI/SNF-related matrix-associated actin-dependent regulator of chromatin subfamily A member 4 (Homo sapiens, UniProt P51532); assay: Binding affinity to SMARCA4 (unknown origin)
Sequence of SWI/SNF-related matrix-associated actin-dependent regulator of chromatin subfamily A member 4 (P51532 whole entry): as the sequence (P51532 whole entry, looked up, the tested form may be a part) above

[30] = molecular target: SWI/SNF-related matrix-associated actin-dependent regulator of chromatin subfamily A member 2 (Homo sapiens, UniProt P51531); assay: Binding affinity to SMARCA2 (unknown origin)
Sequence of SWI/SNF-related matrix-associated actin-dependent regulator of chromatin subfamily A member 2 (P51531 whole entry): as the sequence (P51531 whole entry, the tested form may be a part) above

GI50 [1]: 16 nM
DC50 [2]: 2 nM
Emax [3]: 94%
GI50 [4]: 48 nM
GI50 [6]: 100 nM
DC50 [7]: 8 nM
GI50 [9]: 5 nM
GI50 [10]: 32 nM
GI50 [14]: 38 nM
Emax [20]: 93%
GI50 [21]: 2.5 nM
GI50 [24]: 3.3 nM
GI50 [25]: 60 nM
GI50 [26]: 4.8 nM
GI50 [27]: 76 nM
SMILES: Cc1ncsc1-c1ccc([C@H](C)NC(=O)[C@@H]2C[C@@H](O)CN2C(=O)[C@@H](NC(=O)CCCCCCCCCn2cc(-c3cc(-c4ccccc4O)nnc3N)cn2)C(C)(C)C)cc1
Imax [5]: 95%
Imax [8]: 81%
Imax [11]: 87%
GI50 [12]: 2.5 nM
Imax [13]: 90%
Imax [15]: 72%
Imax [16]: 63%
Imax [17]: 53%
Imax [18]: 86%
Imax [19]: 81%
Imax [22]: 77%
Imax [23]: 82%
Imax [28]: 91%

Kd [29]: 417 nM
SMILES: CN1CCN(/C=C2\CCn3c2nc(=O)c2c(Cl)cccc23)CC1

Kd [29]: 12.8 nM
Kd [30]: 10 nM
SMILES: Cn1cc(-c2cc(-c3ccccc3O)nnc2N)cn1
